From patent WO2017093157A1, “Piperidine, pyrrolidine and 2-oxo-1,3-oxazinane derivatives as inhibitors of bacterial efflux-pumps for the treatment of microbial infections” (Basilea Pharmaceutica AG, priority 2015, dated 2017) come the findings set out here.

The test system of one test is P. aeruginosa PAOl. Kind of test: Antibacterial activity in combination with linezolid, P. aeruginosa. In kind it is cell-based. Conditions: Pseudomonas aeruginosa, linezolid 128 μg/mL, compound 50 μM, OD625 23 h minus 1 h.
The test system of another test is E. coli ATCC25922. Kind of test: Antibacterial activity in combination with linezolid, E. coli. In kind it is cell-based. Conditions: Escherichia coli, linezolid 128 μg/mL, compound 50 μM, OD625 23 h minus 1 h.

`C[N+]1(Cc2cc(OCCc3c[nH]cn3)cc(OCc3ccc(Cl)cc3Br)c2)CCC(CN)C1` (stereo not drawn) [Example 23, [l-[[3-[(2-bromo-4-chloro-phenyl)methoxy]-5-[2-(7H-imidazol-4-yl)ethoxy]phenyl]methyl]-l-methyl-pyrrolidin-l-ium-3-yl]methanamine]: the residual growth (% of uninhibited control) at 50 µM with P. aeruginosa PAOl is not above 50%.

As for `NCC1COC(=O)N(Cc2cc(C=O)cc(OCc3ccc(Cl)cc3Br)c2)C1` (centres unmarked) [Example 7, 3-[[5-(aminomethyl)-2-oxo-l,3-oxazinan-3-yl]methyl]-5-[(2-bromo-4-chloro-phenyl)methoxy]benzaldehyde], the residual growth (% of uninhibited control) at 50 µM in the test with E. coli ATCC25922 was not above 50%.
